This note sets out measurements from patent US10172907B2, “Compositions comprising β-arrestin 1 and methods of use thereof for therapeutic modulation of aldosterone levels in heart disease” (NOVA SOUTHEASTERN UNIVERSITY, priority 2010, dated 2019).

“Also recorded” adds a separate entry of the source. Non-standard residues stand in square brackets, D forms with d. Residues, ends and D or L forms follow the SMILES beside them. Sar = CNCC(=O)O

Assay [1] concerns adrenal βarr1-overexpressing post-MI rats. Description: In vivo hemodynamic analysis (cardiac contractility) of adrenal βarr1-overexpressing post-MI rats treated with sartans and CORET. Also on record: species or system rat. As to conditions: vs. Saline. As for the experimental part:
(§1) In vivo studies: For the in vivo studies, post-MI rats overexpressing Purl in their adrenals received 7-day-long treatments with the agents of interest.
(§2) Aldosterone measurements: Plasma aldosterone and in vitro aldosterone secretion in the supernatant of cultured H295R cells were determined by ELISA with the Aldosterone EIA kit from ALPCO Diagnostics, Salem, N.H. (Lymperopoulos A. et al. Proc. Natl. Acad. Sci. USA 106:5825-5830 2009). In vivo adrenal gene deliveries: Adrenal-specific in vivo gene delivery in rats was performed as previously described in Lymperopoulos A. et al. Proc. Natl. Acad. Sci. USA 106:5825-5830 2009). Echocardiographic and hemodynamic measurements: Two-dimensional guided M-mode and Doppler echocardiography and closed chest cardiac catheterization were performed as described in Lymperopoulos, A. et al. Nat. Med. 13:315-323 2007. Statistical analysis: Data are presented as mean±SEM. One- or two-way ANOVA with Bonferroni test was used for analysis of numeric parameters and differences were considered significant at p<0.05. Experimental Results
(§3) Statistical analysis: p<0.05, vs. Saline, ^, p<0.05, vs. CORET (SEQ ID NO:4) or IRB, n=6 rats/group.

Assay [2] has the same test system. Description: Echocardiography (ejection fraction) of adrenal βarr1-overexpressing post-MI rats treated with sartans and CORET. The assay is classed as in vivo, rat. As to conditions: for ejection fraction (EF %) vs. Saline, in words: 3-week post-MI rats, 7 days post Adβarr1 gene transfer and concomitant treatment; for cardiac ejection fraction (EF): adrenal βarr1-overexpressing post-MI rats, 7-day treatment, saline-treated 35±0.3%. As for the experimental part: as §1, §2, §3

The test system is the same in assay [3]. Description: Plasma aldosterone in adrenal βarr1-overexpressing post-MI rats treated with sartans and CORET. Format: in vivo, rat. As to conditions: 3-week post-MI rats, 7 days post Adβarr1 adrenal gene transfer, 7-day treatment. As for the experimental part: as §1, §2
Statistical analysis: p<0.05, vs. Saline, n=6 rats/group.

The subject of another assay is H295R cells. Description: In vitro βarr1-dependent SII-induced aldosterone secretion in H295R cells (ELISA). Format: cell-based, human. As to conditions: H295R cells transfected with Adβarr1, stimulated with 1 mM SII, standard doses of agents; p<0.05 vs. SII. As for the experimental part:
as §2
Of note, when endogenous Purl is inhibited, no effects by drugs and peptides on SII-induced aldosterone secretion are seen (data not shown), as expected, since SII is a “biased” βarr-only agonist (Luttrell, L. M. et al. Pharmacol. Rev. 62:305-330 2010; Rajagopal, S. et al. Nat. Rev. Drug Discov. 9:373-386 2010; Kenakin, T. et al. Pharmacol. Rev. 62:265-304 2010). Statistical analysis: <0.05, vs. SII, n=3 independent experiments.
Background: In an ELISA, binding on a coated surface is turned into a signal by an enzyme label.

The subject of assay [4] is post-MI rats. Description: Echocardiographic parameters after adrenal gene delivery in post-MI rats. The assay is classed as in vivo, rat. As to conditions: Adβarr1 post-MI rats. As for the experimental part: (§4) In vivo adrenal gene delivery in post-myocardial infarction (MI) rats: All animal procedures and experiments were performed in accordance with the guidelines of the IACUC committees of Thomas Jefferson and Nova Southeastern Universities. MI was performed using a known cryo-infarct method (Lymperopoulos, A. et al. Nat. Med. 13:315-323 2007). Adrenal-specific in vivo gene delivery was done essentially as described in Lymperopoulos, A. et al. (Mol. Ther. 16:302-307 2008) via direct delivery of adenovirus in the adrenal gland. […] Construction and purification of adenovirus: Recombinant adenovirus that encode full length wild-type βarr1 (Adβarr1; SEQ ID NO:1) or a rat βarr1 C-terminal fragment (Adβarr-1ct) (SEQ ID NO:3, amino acid residues 369-418 of the C-terminal of rat βarr-1 (SEQ ID NO:2); see FIG. 7A) were constructed as described in Lymperopoulos A. et al. Proc. Nati. Acad. Sci. USA 106:5825-5830 2009 and Lymperopoulos, A. et al. Nat. Med. 13:315-323 2007. […] Plasma aldosterone measurements: Rat plasma aldosterone levels were determined by EIA (Aldosterone EIA Kit, ALPCO Diagnostics, Salem, N.H., USA) as described in Lymperopoulos A. et al. Proc. Natl. Acad. Sci. USA 106:5825-5830 2009 and Mihailidou et al. Hypertension 40:124-129 2002. […]

The subject of assay [5] is post-MI rats. Put plainly: Plasma aldosterone (EIA) after adrenal gene delivery in post-MI rats. Format: in vivo, rat. As for the experimental part: In vivo adrenal gene delivery in post-myocardial infarction (MI) rats: All animal procedures and experiments were performed in accordance with the guidelines of the IACUC committees of Thomas Jefferson and Nova Southeastern Universities. MI was performed using a known cryo-infarct method (Lymperopoulos, A. et al. Nat. Med. 13:315-323 2007). Adrenal-specific in vivo gene delivery was done essentially as described in Lymperopoulos, A. et al. (Mol. Ther. 16:302-307 2008) via direct delivery of adenovirus in the adrenal gland. […] Construction and purification of adenovirus: Recombinant adenovirus that encode full length wild-type βarr1 (Adβarr1; SEQ ID NO:1) or a rat βarr1 C-terminal fragment (Adβarr-1ct) (SEQ ID NO:3, amino acid residues 369-418 of the C-terminal of rat βarr-1 (SEQ ID NO:2); see FIG. 7A) were constructed as described in Lymperopoulos A. et al. Proc. Nati. Acad. Sci. USA 106:5825-5830 2009 and Lymperopoulos, A. et al. Nat. Med. 13:315-323 2007. […] The black box highlights the clathrin- and AP-2 adaptin-binding domains, which are necessary for the receptor internalizing and signaling functions of βarr1 (Ferguson, S. S. Pharmacol Rev 53:1-24 2001) Transgenes were cloned into shuttle vector pAdTrack-CMV, which harbors a CMV-driven green fluorescent protein (GFP), to form the viral constructs by using standard cloning protocols. As control adenovirus, empty vector which expressed only GFP (AdGFP) was used. The resultant adenovirus were purified using two sequential rounds of CsCl density gradient ultracentrifugation as described in Lymperopoulos A. et al. Proc. Natl. Acad. Sci. USA 106:5825-5830 2009 and Lymperopoulos, A. et al. Nat. Med. 13:315-323 2007. Plasma aldosterone measurements: Rat plasma aldosterone levels were determined by EIA (Aldosterone EIA Kit, ALPCO Diagnostics, Salem, N.H., USA) as described in Lymperopoulos A. et al. Proc. Natl. Acad. Sci. USA 106:5825-5830 2009 and Mihailidou et al. Hypertension 40:124-129 2002. Echocardiographic and hemodynamic measurements: Two-dimensional guided M-mode and Doppler echocardiography using a 14-Mhz transducer (Vevo 770 Echograph, VisualSonic Inc., Toronto, Ontario, Canada) and closed chest cardiac catheterization were performed in rats as described in Lymperopoulos, A. et al. Nat. Med. 13:315-323 2007 and Rengo, G. et al. Circulation 119:89-98 2009. Three independent echocardiographic measurements were taken in both modes. […]

Another assay relates to post-MI rat hearts. Put plainly: Masson-trichrome staining for cardiac fibrosis in post-MI rats. Format: in vivo. As to conditions: 7 days concomitant drug vs. vehicle (saline). As for the experimental part:
as §4

For assay [6], the target named is T1, AT1R (Homo sapiens, UniProt P30556).
T1 sequence (P30556 1-359): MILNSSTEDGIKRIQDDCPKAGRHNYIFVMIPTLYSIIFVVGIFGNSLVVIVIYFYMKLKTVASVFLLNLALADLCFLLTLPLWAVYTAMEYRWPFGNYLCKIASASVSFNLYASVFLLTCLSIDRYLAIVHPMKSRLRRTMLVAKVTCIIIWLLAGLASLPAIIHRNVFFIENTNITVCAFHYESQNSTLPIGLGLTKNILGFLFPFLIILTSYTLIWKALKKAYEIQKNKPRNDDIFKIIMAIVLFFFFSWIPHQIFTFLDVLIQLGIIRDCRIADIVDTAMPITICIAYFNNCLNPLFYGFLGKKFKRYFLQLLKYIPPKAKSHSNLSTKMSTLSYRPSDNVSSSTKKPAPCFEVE
Put plainly: Activation of βarr2 by human AT1R in vitro by AngII peptide analogs (FIGS. 1B-C). The assay is classed as cell-based. As to conditions: for EC50: in vitro.

The target of assay [7] is T1, AT1R. Description: Inhibition of SII-induced activation of βarr2 by human AT1R in vitro (FIG. 1A). As to conditions: % normalized signal.
In assay [8] the target is T1, AT1R. Put plainly: Biased antagonism of sartans for AT1R-stimulated βarr vs. G-protein-mediated signaling (FIG. 6). As to conditions: both IC50 in nM; <1 biased for βarr antagonism, >1 biased towards G-protein antagonism.
From the text: This ranking was derived from the ratios of individual IC50 for AT1R-βarr antagonism to IC50 for G-protein antagonism (both in nM) for each sartan.

Take `CCCCC(=O)N(Cc1ccc(-c2ccccc2-c2nnn[nH]2)cc1)[C@H](C(=O)O)C(C)C` [VAL, Valsartan]: the “myocardial systolic function in response to maximal dose of Isoproterenol (Max. Iso)” value (shortened to “myocardial systolic function in response”) in assay [1] was “significantly improves it”. In addition, in [2], the “ejection fraction (EF %) vs. Saline, in words” value was “significantly improved” and the “cardiac ejection fraction (EF)” value came out at 40±1%. Moreover, the “plasma aldosterone levels vs. Saline” value in [3] is reported as “profound decreases”. Besides, the “plasma aldosterone levels vs. Saline” value in [3] (listed as valsartan) is reported as “significant plasma aldosterone reductions”. For the same compound, the SII-induced aldosterone secretion entry in the assay with H295R cells is on record as “can inhibit”.

For the compound `COC(=O)[C@@H]1CC2=CC(=O)CC[C@]2(C)[C@@]23O[C@@H]2C[C@@]2(C)[C@@H](CC[C@@]24CCC(=O)O4)[C@H]13` [eplerenone], the “EF reduction and LVEDD increase induced by adrenal βarr1 overexpression” value with post-MI rats [4] (eplerenone 100 mg/kg/d for 7 days) is recorded as “prevented”. Further, the “effects of adrenal βarr1 overexpression (EF, LVEDD)” value in the assay on post-MI rats [4] (eplerenone low dose 5 mg/kg/d, data not shown) is recorded as “prevented”. Besides, the “effect on plasma aldosterone increase caused by Adβarr1 treatment” value with post-MI rats [5] (Adβarr1 post-MI rats, 100 mg/kg/day eplerenone for 7 days) is given as “no effect”. In addition, the “cardiac fibrosis in Adβarr1-adrenal treated rat hearts under drug treatment” value with post-MI rat hearts was “markedly reduced fibrosis”.

For the compound `CCOc1nc2cccc(C(=O)O)c2n1Cc1ccc(-c2ccccc2-c2nnn[nH]2)cc1` [CAN, Candesartan], in assay [2], the “cardiac ejection fraction (EF)” value came to 41.1±1%.

By EC50 is commonly meant the concentration giving half of the maximal effect. A higher EC50 goes with a need for much substance. For `CC[C@H](C)[C@H](NC(=O)[C@@H]1CCCN1C(=O)[C@H](Cc1c[nH]cn1)NC(=O)[C@@H](NC(=O)[C@@H](NC(=O)[C@@H](NC(=O)[C@H](CCCNC(=N)N)NC(=O)CNC)C(C)C)[C@@H](C)CC)[C@@H](C)CC)C(=O)O` [SII, Sar^1,Ile^4,Ile^8-AngII], the EC50 on AT1R [6] came out at 11.2 nM.

For `CCCCc1nc(Cl)c(CO)n1Cc1ccc(-c2ccccc2-c2nn[nH]n2)cc1` [LOS, Losartan], in the assay on post-MI rats [5] (losartan 50 mg/kg/day for 7 days post-gene delivery), the “plasma aldosterone reduction by losartan in Adβarr1ct-treated post-MI rats” value is reported as “no significant aldosterone reduction”. In the assay with post-MI rats [5] (losartan 50 mg/kg/day for 7 days post-gene delivery, saline-treated 470±20), the “plasma aldosterone, losartan-treated control AdGFP post-MI rats” value was found to be 402 ± 10 pg/mL. In the assay on post-MI rats [5] (losartan 50 mg/kg/day for 7 days post-gene delivery, saline-treated 845±150, not significant), the “plasma aldosterone, losartan-treated Adβarr1 post-MI rats” value worked out at 880 ± 88 pg/mL. In addition, the “cardiac fibrosis in Adβarr1-adrenal treated rat hearts under drug treatment” value in the assay with post-MI rat hearts was “incapable of reducing the cardiac fibrosis”.

On to `CCSC[C@H](NC(=O)[C@H](Cc1ccc(O)cc1)NC(=O)[C@@H](NC(=O)[C@H](CCCNC(=N)N)NC(=O)CNC)C(C)C)C(=O)N[C@@H](Cc1c[nH]cn1)C(=O)N1CCC[C@H]1C(=O)N[C@@H](CC(C)C)C(=O)O` [CORET, Sar^1,Cys(Et)^5,Leu^8-AngII] (H-[Sar]RVYC(Et)HPL-OH; N-terminus and C-terminus assumed), for which the “myocardial systolic function in response” value in assay [1] is “severely impaired myocardial systolic function”. On AT1R [6], this compound came in with a half-maximal effective concentration (EC50) of 1 nM. Besides, on AT1R [6] (ratio of EC50s), the “times less potent than AngII for βarr activation by the AT1R” value is recorded as 10 times. Moreover, the “ejection fraction (EF %) vs. Saline, in words” value in assay [2] was “further worsened cardiac function”. Besides, in assay [3], the “plasma aldosterone levels vs. Saline” value was “an increase; also recorded: significantly worsens hyperaldosteronism”. Moreover, in the assay on H295R cells, the SII-induced aldosterone secretion entry was “can enhance; also recorded: far greater aldosterone secretion in vitro than SII”.

On to `CCCCC1=NC2(CCCC2)C(=O)N1Cc1ccc(-c2ccccc2-c2nnn[nH]2)cc1` [IRB, Irbesartan], for which the “relative potency for inhibition of SII-induced activation of βarr2 by human AT1R” value at AT1R [7] is “the least potent βarr inhibitors”. The “ratio of IC50 for AT1R-βarr antagonism to IC50 for G-protein antagonism” value at AT1R [8] is on record as 1.05. For the same compound, the “myocardial systolic function in response” value in [1] is recorded as “severely impaired myocardial systolic function”. In addition, in assay [2], the “ejection fraction (EF %) vs. Saline, in words” value is “further worsened cardiac function” and the “cardiac ejection fraction (EF)” value was 32±1%. The “plasma aldosterone levels vs. Saline” value in assay [3] is given as “unable to counter the adrenal βarr1-mediated hyperaldosteronism”.
